According to ChEMBL document CHEMBL2440031, “Benzochalcones bearing pyrazoline moieties show anti-colorectal cancer activities and selective inhibitory effects on aurora kinases” (Bioorg Med Chem, 2013):
Activity calls are given as the source filed them. The rule behind the calls is not given here.

Columns and labels:
HCT-116 [1] = experiment: Cytotoxicity against human HCT116 cells after 7 days using crystal violet staining by clonogenic survival assay; assay type: functional, cell-based; details: HCT-116, 168 h
HCT-116 [2] = experiment: Cell cycle arrest in human HCT116 cells assessed as accumulation at sub-G1 phase accumulation at 40 uM after 12 to 48 hrs using propidium iodide staining by flow cytometric analysis relative to total cells; assay type: functional
HCT-116 [3] = experiment: Cell cycle arrest in human HCT116 cells assessed as decrease of G2/M phase accumulation at 40 uM after 12 to 48 hrs using propidium iodide staining by flow cytometric analysis; assay type: functional, cell-based
HCT-116 [4] = experiment: Cell cycle arrest in human HCT116 cells assessed as decrease of S phase accumulation at 40 uM after 12 to 48 hrs using propidium iodide staining by flow cytometric analysis; assay type: functional, cell-based
HCT-116 [5] = experiment: Cell cycle arrest in human HCT116 cells assessed as increase of G1 phase accumulation at 40 uM after 12 to 48 hrs using propidium iodide staining by flow cytometric analysis; assay type: functional, cell-based
HCT-116 [6] = experiment: Effect on cyclin-A1 expression in human HCT116 cells at 40 uM after 12 to 48 hrs by Western blot analysis; assay type: functional, cell-based
HCT-116 [7] = experiment: Increase of cyclin-D1 expression in human HCT116 cells at 40 uM after 24 to 48 hrs by Western blot analysis; assay type: functional, cell-based
HCT-116 [8] = experiment: Increase of cyclin-D1 expression in human HCT116 cells at 40 uM after 12 hrs by Western blot analysis; assay type: functional, cell-based
HCT-116 [9] = experiment: Decrease of cyclin-B1 expression in human HCT116 cells at 40 uM after 24 hrs by Western blot analysis; assay type: functional, cell-based
HCT-116 [10] = experiment: Increase of CDK expression in human HCT116 cells at 40 uM by Western blot analysis; assay type: functional, cell-based; details: TDE = time-dependent effect
HCT-116 [11] = experiment: Increase of p21 expression in human HCT116 cells at 40 uM by Western blot analysis; assay type: functional, cell-based; details: TDE = time-dependent effect
HCT-116 [12] = experiment: Cytotoxicity against human HCT116 cells up to 40 uM by WST-8 assay; assay type: functional, cell-based; details: TDE = time-dependent effect
HCT-116 [13] = experiment: Cytotoxicity against human HCT116 cells after 24 to 48 hrs by WST-8 assay; assay type: functional, cell-based

Row | SMILES | IC50 (HCT-116 [1]) | other results
1 | COc1cc(OC)cc(C2CC(c3c(O)ccc4ccccc34)=NN2)c1 (stereo not drawn) | 5.7 µM | 
2 | COc1ccc(C2CC(c3c(O)ccc4ccccc34)=NN2)c(OC)c1 (stereo not drawn) | 2.4 µM | Activity (HCT-116 [2]): 21.3%; Activity (HCT-116 [3]): Active; Activity (HCT-116 [4]): Active; Activity (HCT-116 [5]): Active; Activity (HCT-116 [6]): Active; Activity (HCT-116 [7]): inactive; Activity (HCT-116 [8]): Active; Activity (HCT-116 [9]): Active; Activity (HCT-116 [10]): tde; Activity (HCT-116 [11]): tde; Activity (HCT-116 [12]): tde; Activity (HCT-116 [13]): Dose-dependent effect
3 | COc1ccccc1C1CC(c2ccc3ccccc3c2O)=NN1 (stereo not drawn) | 17.4 µM | 
4 | COc1cccc(C2CC(c3ccc4ccccc4c3O)=NN2)c1OC (stereo not drawn) | 15.2 µM | 
5 | COc1cccc(C2CC(c3ccc4ccccc4c3O)=NN2)c1 (stereo not drawn) | 20.8 µM | 
6 | COc1cc(OC)c(C2CC(c3ccc4ccccc4c3O)=NN2)c(OC)c1 (stereo not drawn) | 32.5 µM | 
7 | COc1ccc(C2CC(c3c(O)ccc4ccccc34)=NN2)cc1 (stereo not drawn) | 7.8 µM | 
8 | COc1ccc(C2CC(c3ccc4ccccc4c3O)=NN2)cc1 (stereo not drawn) | 13.2 µM | 
9 | COc1ccc(C2CC(c3c(O)ccc4ccccc34)=NN2c2ccc(Cl)cc2)cc1 (stereo not drawn) | 9.8 µM | 
10 | COc1cc(OC)c(C2CC(c3c(O)ccc4ccccc34)=NN2c2ccc(Cl)cc2)cc1OC (stereo not drawn) | 7.8 µM | 
11 | COc1cc(OC)cc(C2CC(c3ccc4ccccc4c3O)=NN2)c1 (stereo not drawn) | 4.7 µM | 
12 | COc1ccc(C2CC(c3c(O)ccc4ccccc34)=NN2c2ccc(Cl)cc2)c(OC)c1 (stereo not drawn) | 5.4 µM | 
13 | COc1ccc(C2CC(c3ccc4ccccc4c3O)=NN2)c(OC)c1OC (stereo not drawn) | 11.3 µM | 
14 | COc1ccc(C2CC(c3ccc4ccccc4c3O)=NN2)c(OC)c1 (stereo not drawn) | 8.8 µM | 
15 | COc1cc(OC)c(C2CC(c3ccc4ccccc4c3O)=NN2)cc1OC (stereo not drawn) | 9 µM | 
16 | COc1cccc(C2CC(c3c(O)ccc4ccccc34)=NN2)c1OC (stereo not drawn) | 6.3 µM | 
